What was measured:
[1] = literature; cited from earlier work
[2] = cited from earlier work; for Antidiuretic activity: literature
Male Wistar rats [3] = assay: Effect on urine volume and electrolyte excretion; format: in vivo, rat; conditions: 100 mg/kg p.o.; for Cl- / K+ / Na+ / Na+/K+: urinary excretion over 5 hours
Method: Male Wistar rats weighing 220 to 260 g were used. Each test compound was suspended in a solution of tragacanth dissolved in a concentration of 0.5% in a 0.9% saline solution so that the volume of the resulting suspension to be administered would be always 25 ml/Kg. The test compounds were administered orally by the stomach tube to the animals at the prescribed doses. The animals were then placed in a metabolic cage and the urine was collected over a period of 5 hours. The total amount of sodium, potassium and chloride excreted was determined by Auto-Analyzer, made by Technicon Instruments Corporation.

[4] = system: Spontaneously hypertensive male rats; assay: Antihypertensive activity in spontaneously hypertensive rats (oral, 10 successive days); format: in vivo, rat; conditions: 10 mg/kg/day p.o.
Method: Spontaneously hypertensive male rats [SHR, Jap. Circ. J. 27, 282-93 (1963)] being 18-23 weeks of age and having systolic blood pressure levels of 170-190 mmHg were used. The test compounds were each suspended in a 0.5% aqueous tragacanth solution and administered orally in a dose of 10 mg/kg/day by stomach tube to SHR once a day for 10 successive days. The blood pressure of conscious SHR was measured prior to dosing and 5 hours after administration. It was also measured once daily over a period of 7 days after the end of the treatment period. The measurement of the blood pressure was made by a plethysmographtail method [Jap. Circ. J. 27, 282-93 (1963)].

Male Wistar rats [5] = assay: Effect on blood glucose (b), intraperitoneal; conditions: 300 mg/kg i.p.
Method: (b) Male Wistar rats weighing 260-285 g were used. […] 4 ml/kg of the above solution of each test compound was intraperitoneally administered to each animal. The blood samples were taken prior to dosing and 1, 3 and 6 hours after the administration and the plasma glucose levels were determined in a similar manner to that described in (a).

[6] = well known; cited from earlier work
Male Wistar rats [7] = assay: Effect on blood glucose (a), oral; conditions: 300 mg/kg p.o.
Method: (a) Male Wistar rats weighing 190-210 g were used. Each test compound was suspended in a concentration of 150 mg/ml in a 0.5% aqueous tragacanth solution and orally administered at a dose of 300 mg/kg by the stomach tube.

[8] = system: Spontaneously hypertensive rats; assay: Glucose tolerance test; conditions: 300 mg/kg p.o. once a day, 22 days; 1.25 g/kg oral glucose
Method: Spontaneously hypertensive rats weighing 360 to 400 g were used. Each of the test compounds was suspended in a 0.5% aqueous tragacanth solution, and orally administered to the animals at a dose of 300 mg/kg once a day for 22 consecutive days. The control group was given only the 0.5% aqueous tragacanth solution. After the final administration, the animals were caused to fast for 20 hours, and subjected to a glucose tolerance test by an oral application of 1.25 g/kg of glucose.

[9] = Toxicity (LD50), JCL-ICR mice; conditions: mouse, in vivo
From the text: (§1) Male and female JCL-ICR strain mice, weighing 20-30 g (each group: 8 mice), and male and female JCL-SD strain rats, weighing 150-250 g (each group: 8 rats) were used.

[10] = Toxicity (LD50), JCL-SD rats; conditions: rat, in vivo
From the text: as §1

[11] = day 0, 5 hours after administration
[12] = day 2, 5 hours after administration
[13] = day 4, 5 hours after administration
[14] = day 6, 5 hours after administration
[15] = day 8, 5 hours after administration
[16] = day 10, 24 hours after the final treatment
[17] = day 14, 120 hours after the final treatment
[18] = iv, female, dissolved with stoichiometric NaOH, 95% confidence limits in parentheses
[19] = iv, male, dissolved with stoichiometric NaOH, 95% confidence limits in parentheses
[20] = po, female, suspended in 0.5% tragacanth
[21] = po, male, suspended in 0.5% tragacanth
[22] = sc, female, dissolved with stoichiometric NaOH
[23] = sc, male, dissolved with stoichiometric NaOH

For `NC1=Nc2cc(C(F)(F)F)ccc2S(=O)(=O)N1` [6-trifluoromethyl-3-amino-2H-1,2,4-benzothiadiazine 1,1-dioxide], the Antihypertensive activity [1] is listed as “substantially the same degree of antihypertensive activity as diazoxide” and the Antidiuretic activity [2] is listed as “antidiuretic activity similar to that of diazoxide”.
For `CC1=Nc2ccc(Cl)cc2S(=O)(=O)N1` [Compound 3, 7-chloro-3-methyl-2H-1,2,4-benzothiadiazine 1,1-dioxide], the Cl- (Male Wistar rats [3]) was 0.20 mEq, the “K+” value (Male Wistar rats [3]) was 0.37 mEq and the “Na+” value (Male Wistar rats [3]) was 0.17 mEq. The “Na+/K+” value (Male Wistar rats [3]) was 0.51, the Blood pressure [4, 11] was 155 mm Hg and the Blood pressure ([4]; day 0, prior to dosing (0)) was 173 mm Hg. For the same molecule, the Blood pressure [4, 12] was 146 mm Hg, the Blood pressure ([4]; day 2, prior to dosing (0)) was 166 mm Hg and the Blood pressure [4, 13] was 151 mm Hg. It also gave a Blood pressure ([4]; day 4, prior to dosing (0)) of 159 mm Hg, a Blood pressure [4, 14] of 143 mm Hg and a Blood pressure ([4]; day 6, prior to dosing (0)) of 150 mm Hg. It also gave a Blood pressure [4, 15] of 137 mm Hg, a Blood pressure ([4]; day 8, prior to dosing (0)) of 153 mm Hg and a Blood pressure [4, 16] of 144 mm Hg. For the same molecule, the Blood pressure [4, 17] was 175 mm Hg, the Blood glucose (Male Wistar rats [5]; 0 hr (prior to dosing)) was 100 mg/dL and the Blood glucose (Male Wistar rats [5]; 1 hr) was 361 mg/dL. The Blood glucose (Male Wistar rats [5]; 3 hr) was 599 mg/dL, the Blood glucose (Male Wistar rats [5]; 6 hr) was 675 mg/dL and the Hyperglycemic effects [6] was “marked hyperglycemic effects”. The Blood glucose (Male Wistar rats [7]; 0 hr (prior to dosing)) was 111 mg/dL, the Blood glucose (Male Wistar rats [7]; 1 hr) was 126 mg/dL and the Blood glucose (Male Wistar rats [7]; 3 hr) was 125 mg/dL. For the same molecule, the Blood glucose (Male Wistar rats [7]; 6 hr) was 146 mg/dL, the Blood glucose (Male Wistar rats [7]; 10 hr) was 148 mg/dL and the Diuretic action ([2]; known) was “no diuretic action”. For the same molecule, the Antidiuretic activity [2] was “antidiuretic effects (i.e., sodium and water retaining effect)”.
In the case of `CN1CCN(C2=Nc3ccc(Cl)cc3S(=O)(=O)N2)CC1` [Compound A, 7-chloro-3-(4-methyl-1-piperazinyl)-2H-1,2,4-benzothiadiazine 1,1-dioxide], the “Blood glucose levels after application of glucose, compared with control group” value [8] is reported as “same glucose tolerance pattern as the control group”, the Glucose tolerance [8] is reported as “no abnormality was observed in glucose tolerance” and the LD50 at 168 h [9, 18] is reported as 242 mg/kg. The LD50 at 168 h [9, 19] was 267 mg/kg, the LD50 at 168 h [9, 20] was over 5000 mg/kg and the LD50 at 168 h [9, 21] was over 5000 mg/kg. For the same molecule, the LD50 at 168 h [9, 22] was over 2410 mg/kg, the LD50 at 168 h [9, 23] was over 2410 mg/kg and the “Change in Na+/K+” value (Male Wistar rats [3]) was “some increase”. The “Change in electrolyte excretion” value (Male Wistar rats [3]) was “no significant change”, the “Change in urine volume” value (Male Wistar rats [3]) was “no significant change” and the Urine volume (Male Wistar rats [3]; 5 hours) was 3.58 mL. The Cl- (Male Wistar rats [3]) was 0.90 mEq, the “K+” value (Male Wistar rats [3]) was 0.40 mEq and the “Na+” value (Male Wistar rats [3]) was 0.78 mEq. For the same molecule, the “Na+/K+” value (Male Wistar rats [3]) was 1.93, the Blood pressure [4, 11] was 172 mm Hg and the Blood pressure ([4]; day 0, prior to dosing (0)) was 172 mm Hg. It also gave a Blood pressure [4, 12] of 155 mm Hg, a Blood pressure ([4]; day 2, prior to dosing (0)) of 167 mm Hg and a Blood pressure [4, 13] of 151 mm Hg. For the same molecule, the Blood pressure ([4]; day 4, prior to dosing (0)) was 158 mm Hg, the Blood pressure [4, 14] was 131 mm Hg and the Blood pressure ([4]; day 6, prior to dosing (0)) was 144 mm Hg. It also gave a Blood pressure [4, 15] of 135 mm Hg, a Blood pressure ([4]; day 8, prior to dosing (0)) of 143 mm Hg and a Blood pressure [4, 16] of 139 mm Hg. It also gave a Blood pressure [4, 17] of 165 mm Hg, an LD50 at 168 h [10, 18] of 740 mg/kg and an LD50 at 168 h [10, 19] of 551 mg/kg. It also gave an LD50 at 168 h [10, 20] of over 5000 mg/kg, an LD50 at 168 h [10, 21] of over 5000 mg/kg and an LD50 at 168 h [10, 22] of over 1000 mg/kg. For the same molecule, the LD50 at 168 h [10, 23] was over 1000 mg/kg, the Blood glucose (Male Wistar rats [5]; 0 hr (prior to dosing)) was 94 mg/dL and the Blood glucose (Male Wistar rats [5]; 1 hr) was 102 mg/dL. The Blood glucose (Male Wistar rats [5]; 3 hr) was 103 mg/dL, the Blood glucose (Male Wistar rats [5]; 6 hr) was 111 mg/dL and the “Effect on blood glucose level” value (Male Wistar rats [5]; rats) was “substantially no effect”. The Blood glucose (Male Wistar rats [7]; 0 hr (prior to dosing)) was 105 mg/dL, the Blood glucose (Male Wistar rats [7]; 1 hr) was 105 mg/dL and the Blood glucose (Male Wistar rats [7]; 3 hr) was 107 mg/dL. For the same molecule, the Blood glucose (Male Wistar rats [7]; 6 hr) was 103 mg/dL, the Blood glucose (Male Wistar rats [7]; 10 hr) was 110 mg/dL and the “Effect on blood glucose level” value (Male Wistar rats [7]; rats) was “substantially no effect”.

From patent publication US4029780A, “3-Piperazinyl 1,2,4-benzothiadiazine 1,1-dioxide derivatives their compositions and method of use” (Dainippon Pharmaceutical Co., Ltd., priority 1974, dated 1977)
